The source of these data is ChEMBL document CHEMBL1137879, “The development of new bicyclic pyrazole-based cytokine synthesis inhibitors” (Bioorg Med Chem Lett, 2004).

Experiment [1] concerns the target Mitogen-activated protein kinase 14 (Homo sapiens, UniProt Q16539). Put plainly: Inhibition of human Mitogen-activated protein kinase p38 alpha.
The test system of a further experiment is THP-1. Kind of experiment: Concentration required to inhibit production of Tumor necrosis factor, alpha in LPS-stimulated human monocytic cells (THP-1). Format: functional, cell-based.

Chain of Mitogen-activated protein kinase 14 (Q16539 whole entry): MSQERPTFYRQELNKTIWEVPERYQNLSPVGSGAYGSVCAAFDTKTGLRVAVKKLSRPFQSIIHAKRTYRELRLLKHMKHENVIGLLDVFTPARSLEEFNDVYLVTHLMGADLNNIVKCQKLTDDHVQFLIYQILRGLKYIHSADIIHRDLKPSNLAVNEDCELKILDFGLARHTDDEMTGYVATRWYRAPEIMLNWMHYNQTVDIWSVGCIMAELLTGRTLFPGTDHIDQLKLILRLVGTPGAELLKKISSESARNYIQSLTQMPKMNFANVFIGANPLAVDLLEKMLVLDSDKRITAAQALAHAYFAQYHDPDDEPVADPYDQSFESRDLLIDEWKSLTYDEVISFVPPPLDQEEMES

For `Fc1ccc(-c2c(-c3ccnc(Oc4ccccc4)n3)nn3c2OCCC3)cc1`, the IC50 (usually the concentration that gives 50% inhibition) in experiment [1] is 6.6 µM; in the experiment with THP-1, above 10 µM.

`Fc1ccc(-c2c(-c3ccnc(Oc4ccccc4)n3)nn3c2OCC3)cc1`: the IC50 in experiment [1] is 2.2 µM; in the experiment on THP-1, 0.3 µM.

As to `C[C@@H](Nc1nccc(-c2nn3c(c2-c2ccc(F)cc2)OCC3)n1)c1ccccc1`, the IC50 in experiment [1] was 11.2 µM; in the experiment with THP-1 it was above 2 µM.

On to `COC[C@@H](C)Nc1nccc(-c2nn3c(c2-c2ccc(F)cc2)OCC3)n1`, for which the IC50 came to 0.28 µM in experiment [1] and 1.7 µM with THP-1.

In turn, `CCOCn1nnc(-c2ccncc2)c1-c1ccc(F)cc1` gave an IC50 in experiment [1] of 0.31 µM.

As for `Oc1[nH]nc(-c2ccncc2)c1-c1ccc(F)cc1`, the figures for the IC50 (in experiment [1]; with THP-1) were 0.32 µM and 3.1 µM, respectively.

As to `Fc1ccc(-c2c(-c3ccncc3)nn3c2OCCC3)cc1`, the half-inhibitory concentration (IC50) came to 0.46 µM in experiment [1] and 3.1 µM with THP-1.

In the case of `CC[C@@H](C)Nc1nccc(-c2nn3c(c2-c2ccc(F)cc2)OCC3)n1`, the IC50 worked out at 0.36 µM in experiment [1] and 0.08 µM in the experiment on THP-1.
